Measurements: ChEMBL document CHEMBL1152024, “Synthesis and bronchospasmolytic properties of some pyridazinone derivatives” (1993)

organism: Cavia porcellus; assay: Tested in vitro for its effect on tracheal relaxation in guinea pig trachea, activity expressed as pD2 (-log of molar concentration which gives a half maximal relaxing effect); type: functional

SMILES | pD2
Oc1ccc(N2CCN(CC(O)c3ccc(Cl)c(Cl)c3)CC2)nn1 (configuration not stated) | 4.79
Cn1c(=O)c2nc[nH]c2n(C)c1=O.O [THEOPHYLLINE] | 4

organism: Cavia porcellus; assay: Tested in vitro for its effect on tracheal relaxation in guinea pig trachea, activity expressed as percentage increase in the velocity of the flux of perfusion at concentration 10 ug/mL; type: functional

SMILES | Increase
Cn1c(=O)c2nc[nH]c2n(C)c1=O.O [THEOPHYLLINE] | 55%

organism: Cavia porcellus; assay: Tested in vitro for its effect on tracheal relaxation in guinea pig trachea, activity expressed as percentage increase in the velocity of the flux of perfusion at concentration 30 ug/mL; type: functional

SMILES | Increase
Nc1c(Cl)cc(C(O)CN2CCN(c3ccc(O)nn3)CC2)cc1Cl (configuration not stated) | 54%
CC(=O)Nc1ccc(C(O)CN2CCN(c3cnnc(O)c3Cl)CC2)cc1Cl (configuration not stated) | 4%
O=c1ccc(Cl)nn1CCN1CCN(CC(O)c2ccc(Cl)c(Cl)c2)CC1 (configuration not stated) | 46%
Nc1c(Cl)cc(C(O)CN2CCN(CCn3nc(Cl)ccc3=O)CC2)cc1Cl (configuration not stated) | 22%
CC(=O)Nc1ccc(C(O)CN2CCN(CCn3nc(Cl)ccc3=O)CC2)cc1Cl (configuration not stated) | 4%
Oc1ccc(N2CCN(CC(O)c3ccc(Cl)c(Cl)c3)CC2)nn1 (configuration not stated) | 87%
Oc1nncc(N2CCN(CC(O)c3ccc(Cl)c(Cl)c3)CC2)c1Cl (configuration not stated) | 3%
CC(=O)Nc1ccc(C(O)CN2CCN(c3ccc(O)nn3)CC2)cc1Cl (configuration not stated) | 23%
Nc1c(Cl)cc(C(O)CN2CCN(c3cnnc(O)c3Cl)CC2)cc1Cl (configuration not stated) | 19%
